{
  "source": "paper PMC3045100",
  "about": "“Cell-Penetrating Penta-Peptides (CPP5s): Measurement of Cell Entry and Protein-Transduction Activity” (Pharmaceuticals, 2010)",
  "tested_on": "Jurkat cells",
  "test": "Protection from staurosporine-induced apoptosis (Hoechst nuclear staining)",
  "assay_type": "cell-based",
  "conditions": "200 μM peptide 3 h pre-incubation, STS 100 nM, 3 or 6 h, Hoechst dye nuclear staining, triplicate samples, P < 0.01",
  "experimental": "Figure 3 Protection of cells from apoptosis by VPTLK. a-d. Proteoglycan is not required for VPTLK cell entry. Microscopic analysis of cell entry of Fam-VPTLK in Chinese Hamster Ovary (CHO) A745 cells lacking proteoglycans in the plasma membrane (a) and CHO K1 cells that express proteoglycans (b). CHO A745 and K1 cells were incubated with Fam-VPTLK (200 μM) for 3 h at 37 °C. […] Apoptosis was determined by using Hoechst dye nuclear staining. Each bar represents the mean of triplicate samples and standard error, and statistical significance was determined by an unpaired student t test; “ns”: not significant, *P < 0.05, and **P < 0.01. e. […] Jurkat cells were pre-incubated with VPTLK 200 μM for 3 h prior to STS treatment (100 nM, 3 or 6 h). Apoptosis was determined by Hoechst dye nuclear staining. Each bar represents the mean of triplicate samples and standard error, and statistical significance was determined by an unpaired student t test: **P < 0.01. f. […] Apoptosis was determined by Hoechst dye nuclear staining. […]\nTo induce Bax-mediated apoptosis in HeLa cells, cells were transfected with pEGFP-Bax (1 µg) and apoptosis was determined 24 h after the transfection. […] To detect apoptosis, cells were stained with Hoechst 33258 dye, and the numbers of cells with apoptotic nuclei were counted using fluorescence microscopy. Three-hundred cells were analyzed in triplicate samples. […]",
  "data": [
    {"substance": "VPTLK", "values": [
      {"measurement": "Protection from STS-induced apoptosis, Jurkat", "result": "protected Jurkat cells from STS-induced apoptosis"}
    ]}
  ]
}
